Measured values as given in patent US8841004B2, “Binaphthyl compound and organic light emitting element using the same” (Canon Kabushiki Kaisha, priority 2007, dated 2014).
Converted amounts (≈) assume the structure as drawn.

assay: Solubility in chlorobenzene heated at 130° C.; type: physicochemical
Procedure: Solubility of Example Compound A-02 in chlorobenzene heated at 130° C. was examined.
Comparative Compound H-2 (Comparative Example 2), Comparative Compound H-3 (Comparative Example 3) and Comparative Compound H-5 (Comparative Example 5) were respectively synthesized and solubility in chlorobenzene was examined in the same manner as in Example 1-(C). The results are shown in Table 3 along with those of Examples 1 to 3.

Solubility (chlorobenzene, 130° C.) | SMILES
3300 µg/mL (≈ 5.17 mM) | CC1(C)c2ccccc2-c2ccc(-c3ccc4cc(-c5ccc6cc(-c7ccc8c(c7)C(C)(C)c7ccccc7-8)ccc6c5)ccc4c3)cc21 [Comparative Compound H-2]
3500 µg/mL (≈ 4.21 mM) | CC1(C)c2cc(-c3ccc4c(c3)C(C)(C)c3cc(-c5ccc6ccccc6c5)ccc3-4)ccc2-c2ccc(-c3ccc4c(c3)C(C)(C)c3cc(-c5ccc6ccccc6c5)ccc3-4)cc21 [Comparative Compound H-5]
9400 µg/mL (≈ 11.3 mM) | CC1(C)c2ccccc2-c2ccc(-c3ccc4c(c3)C(C)(C)c3cc(-c5ccc6c(c5)C(C)(C)c5cc(-c7ccc8cc(-c9ccc%10ccccc%10c9)ccc8c7)ccc5-6)ccc3-4)cc21 [Example Compound B-18]

Second part, the compound before the results:

SMILES | Solubility (chlorobenzene, 130° C.)
CC1(C)c2ccccc2-c2ccc(-c3ccc4cc(-c5ccc6cc(-c7ccc8cc(-c9ccc%10c(c9)C(C)(C)c9ccccc9-%10)ccc8c7)ccc6c5)ccc4c3)cc21 [Comparative Compound H-3] | less than 0.6 g/L
CC1(C)c2ccccc2-c2ccc(-c3ccc4c(c3)C(C)(C)c3cc(-c5ccc6cc(-c7ccc8ccccc8c7)ccc6c5)ccc3-4)cc21 [Example Compound A-02] | 16000 µg/mL (≈ 25 mM)
